In patent US11261183B2, “Sulfoximine glycosidase inhibitors” (Asceneuron SA, priority 2016, dated 2022):

Experiments:
[1] = target: Human O-GlcNAcase (His-Tagged hOGA) (Homo sapiens (Human), UniProt O60502); test: Human O-GlcNAcase enzyme inhibition assay; format: biochemical; conditions: His-Tagged hOGA 20 nM, FL-GlcNAc 10 μM, 60 min, room temperature, pH 6.5; read-out: Enzymatic OGA IC50
Procedure: Example B01: Human O-GlcNAcase enzyme inhibition assay
5 μl of the appropriate concentration of a solution of inhibitor in McIlvaine's Buffer (pH 6.5) in 2% DMSO (for a dose response curve calculation) is added into each well of a 384-well plate (Greiner, 781900). Then, 20 nM of His-Tagged hOGA and 10 μM of FL-GlcNAc (Fluorescein mono-beta-D-(2-deoxy-2-N-acetyl) glucopyranoside; Marker Gene Technologies Inc, M1485) were added to the 384-well plate for a final volume of 20 μl. After incubation for 60 min at room temperature, the reaction was terminated by the addition of 10 μL of stop buffer (200 mM glycine, pH 10.75).

[2] = Protein binding in mice plasma using Rapid Equilibrium Dialysis; format: in vitro ADME, CD1 mice; conditions: 37° C.; for fraction unbound at 5 h, 1 µM: male, CD1, mouse, plasma, pH 7.4, CD1 mouse plasma; for % fraction unbound in mouse plasma: CD1 mouse plasma, 5 hours
Procedure: Example B04: Protein binding in mice plasma using Rapid Equilibrium Dialysis
• CD1 Mice Plasma: pooled male, K2-EDTA ([…]2, Bioreclammation, USA • Phosphate Buffered Saline (1×PBS), pH 7.4, 100 mM (Sigma, Cat No. P4417) • RED inserts (Pierce, Cat No. 9006, 8 kDa MWCO) • Sample Analysis: LC-MS/MS Methods • Preparation of DMSO Stock Solution
From 20 mM DMSO stock solutions of reference and test compounds, 1 mM DMSO intermediate working solutions are prepared. From 1 mM intermediate working solutions, 100 μM DMSO working solutions are prepared. • Sample Preparation Procedure:
Selected plasma is brought from −20° C. to 37° C. using water bath before its use. Test solution is prepared by adding the DMSO working solution of the reference or test compound (2 μL; 100 μM) to the selected plasma (198 μL). Spiked plasma (200 μl) is transferred to sample compartment of RED insert placed in the teflon plate. 350 μl of 1×PBS is added in the buffer compartment of RED insert. The teflon plate is covered with sealing mat and agitated at 37° C. for 5 hours at 500 RPM in a Thermomixer. After incubation time, an aliquot of plasma (50 μl) from sample compartment is mixed with blank 1×PBS (50 μl). Similarly, an aliquot of buffer (50 μl) from buffer compartment is mixed with blank plasma (50 μl). Quenching solution (200 μL, acetonitrile containing internal standard tolbutamide (0.5 μg/mL)) is added and the resulting solutions are mixed using a vortex mixer and centrifuged (Eppendorf 5415, 13792 g). Supernatants are analyzed using a Mass Spectrometer. The sample (supernatant fraction, 5 μL) is injected into the LC-MS/MS instrument. • Chromatographic Conditions: LC-MS/MS: API 4000 LC-MS/MS Software: Analyst Version 1.6.1 Column Phenomenex Synergy 30*4.6*5μ Column Oven: 40° C. Mode: ESI Positive Injection volume: 5 μl Flow Rate: […] Buffer: 0.1% Formic acid in Water Method: Isocratic Method/Gradient Composition: A) 0.1% Formic acid in Water B) 0.1% Formic acid in Methanol
After the concentration of free drug and total drug has been determined by LCMS/MS, percent plasma protein binding can be calculated as follows:
[formula] Following this protocol, % fraction unbound in plasma from different species can be also measured.

Chain of Human O-GlcNAcase (His-Tagged hOGA) (O60502 whole entry): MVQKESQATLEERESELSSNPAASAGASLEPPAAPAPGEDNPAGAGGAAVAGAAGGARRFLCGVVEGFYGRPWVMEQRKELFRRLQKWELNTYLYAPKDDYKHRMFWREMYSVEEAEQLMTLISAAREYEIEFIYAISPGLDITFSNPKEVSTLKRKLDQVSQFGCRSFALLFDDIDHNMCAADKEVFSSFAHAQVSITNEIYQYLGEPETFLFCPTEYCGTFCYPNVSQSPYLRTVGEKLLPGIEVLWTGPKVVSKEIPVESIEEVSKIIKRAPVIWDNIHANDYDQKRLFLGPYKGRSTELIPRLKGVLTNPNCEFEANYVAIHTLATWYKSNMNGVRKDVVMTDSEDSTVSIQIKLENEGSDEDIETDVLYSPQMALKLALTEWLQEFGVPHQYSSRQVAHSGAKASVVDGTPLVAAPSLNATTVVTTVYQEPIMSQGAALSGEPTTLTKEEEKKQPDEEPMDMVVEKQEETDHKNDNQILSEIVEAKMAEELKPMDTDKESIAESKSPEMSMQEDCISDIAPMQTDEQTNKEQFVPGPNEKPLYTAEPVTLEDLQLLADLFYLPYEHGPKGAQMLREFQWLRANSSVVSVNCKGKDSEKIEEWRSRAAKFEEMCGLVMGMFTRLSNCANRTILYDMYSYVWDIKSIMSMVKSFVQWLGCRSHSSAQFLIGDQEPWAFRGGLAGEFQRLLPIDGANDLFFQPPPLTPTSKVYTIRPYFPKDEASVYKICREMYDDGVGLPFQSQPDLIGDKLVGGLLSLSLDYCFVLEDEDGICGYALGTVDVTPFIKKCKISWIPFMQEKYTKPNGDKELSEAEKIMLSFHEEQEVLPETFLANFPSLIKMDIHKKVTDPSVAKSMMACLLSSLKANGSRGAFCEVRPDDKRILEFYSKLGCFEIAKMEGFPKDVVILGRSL

IC50 [1] [nM]	fraction unbound at 5 h, 1 µM [2]	% fraction unbound in mouse plasma [2] [%]	Structure (SMILES)
< 50	–	12.81	Cc1nc2cc(C(C)N3CCN(c4ncc(S(C)(=N)=O)cn4)CC3)ccc2s1 (single isomer, unassigned) [Example 53]
< 50	0.214	–	CN=S(C)(=O)c1cnc(N2CCN(C(C)c3ccc4sc(C)nc4c3)CC2)nc1 (racemic) [Example 45, methyl(2-(4-(1-(2-methylbenzo[d]thiazol-5-yl)ethyl)piperazin-1-yl)pyrimidin-5-yl)(methylimino)-λ^6-sulfanone]
< 50	0.0534	–	CCN=S(C)(=O)c1cnc(N2CCN(C(C)c3ccc4sc(C)nc4c3)CC2)nc1 (racemic) [Example 48, (ethylimino)(methyl)(2-(4-(1-(2-methylbenzo[d]thiazol-5-yl)ethyl)piperazin-1-yl)pyrimidin-5-yl)-λ^6-sulfanone]
50 to 200	0.0545	–	Cc1nc2cc(C(C)N3CCN(c4ncc(S(C)(=O)=NC(C)C)cn4)CC3)ccc2s1 (racemic) [Example 49, (isopropylimino)(methyl)(2-(4-(1-(2-methylbenzo[d]thiazol-5-yl)ethyl)piperazin-1-yl)pyrimidin-5-yl)-λ^6-sulfanone]
< 50	–	33.7	CC(c1ccc2scnc2c1)N1CCN(c2ncc(S(C)(=N)=O)cn2)CC1 (single isomer, unassigned) [Example 35]
< 50	0.113	–	CC(c1ccc2c(c1)OCC2)N1CCN(c2ncc3c(n2)CCS(=N)(=O)C3)CC1 (racemic) [Example 61, 2-(4-(1-(2,3-dihydrobenzofuran-6-yl)ethyl)piperazin-1-yl)-6-imino-5,6,7,8-tetrahydro-6λ^4-thiopyrano[4,3-d]pyrimidine 6-oxide]
< 50	0.0535	–	CC(c1ccc2scnc2c1)N1CCN(c2ncc(C(=O)N=S(C)(C)=O)cn2)CC1 (racemic) [Example 32, 2-(4-(1-(benzo[d]thiazol-5-yl)ethyl)piperazin-1-yl)-N-(dimethyl(oxo)-λ^6-sulfanylidene)pyrimidine-5-carboxamide]
< 50	–	45.51	CC(c1ccc2scnc2c1)N1CCN(c2ncc(S(C)(=N)=O)cn2)CC1 (single isomer, unassigned) [Example 36]

Second part, the molecule before the results:

Structure (SMILES)	IC50 [1] [nM]	fraction unbound at 5 h, 1 µM [2]	% fraction unbound in mouse plasma [2] [%]
CN=S(C)(=O)c1cnc(N2CCN(C(C)c3ccc4c(c3)OCC4)CC2)nc1 (racemic) [Example 8, (2-(4-(1-(2,3-dihydrobenzofuran-6-yl)ethyl)piperazin-1-yl)pyrimidin-5-yl)(methyl)(methylimino)-λ^6-sulfanone]	< 50	0.234	–
CCN=S(C)(=O)c1cnc(N2CCN(C(C)c3ccc4scnc4c3)CC2)nc1 (racemic) [Example 27]	< 50	0.186	–
CC(c1ccc2c(c1)OCC2)N1CCN(c2ncc(N=S(C)(C)=O)cn2)CC1 (racemic) [Example 9]	< 50	0.376	–
CCS(=N)(=O)c1cnc(N2CCN(C(C)c3ccc4scnc4c3)CC2)nc1 (racemic) [Example 23, (2-(4-(1-(benzo[d]thiazol-5-yl)ethyl)piperazin-1-yl)pyrimidin-5-yl)(ethyl)(imino)-λ^6-sulfanone]	< 50	0.215	–
CN=S(C)(=O)c1ccc(N2CCN(C(C)c3ccc4c(c3)OCC4)CC2)nc1 (single isomer, unassigned) [Example 20, (6-(4-((S)-1-(2,3-dihydrobenzofuran-6-yl)ethyl)piperazin-1-yl)pyridin-3-yl)(methyl)(methylimino)-λ^6-sulfanone or (6-(4-((R)-1-(2,3-dihydrobenzofuran-6-yl)ethyl)piperazin-1-yl)pyridin-3-yl)(methyl)(methylimino)-λ^6-sulfanone]	< 50	0.223	–
CC(c1ccc2scnc2c1)N1CCN(c2ccc(S(C)(=N)=O)cn2)CC1 (racemic) [Example 26, (6-(4-(1-(benzo[d]thiazol-5-yl)ethyl)piperazin-1-yl)pyridin-3-yl)(imino)(methyl)-λ^6-sulfanone]	< 50	0.18	–
CC(c1ccc2c(c1)OCC2)N1CCN(c2ncc(S(C)(=N)=O)cn2)CC1 (single isomer, unassigned) [Example 14]	< 50	–	35.63
CC(c1ccc2scnc2c1)N1CCN(c2ncc(S(C)(=N)=O)cn2)CC1 (racemic) [Example 22, (2-(4-(1-(benzo[d]thiazol-5-yl)ethyl)piperazin-1-yl)pyrimidin-5-yl)(imino)(methyl)-λ^6-sulfanone]	< 50	0.248	–
CC(c1ccc2c(c1)OCC2)N1CCN(c2ncc(S(C)(=N)=O)cn2)CC1 (single isomer, unassigned) [Example 12]	< 50	0.424	–
CCS(=N)(=O)c1cnc(N2CCN(C(C)c3ccc4c(c3)OCC4)CC2)nc1 (racemic) [Example 3, (2-(4-(1-(2,3-dihydrobenzofuran-6-yl)ethyl)piperazin-1-yl)pyrimidin-5-yl)(ethyl)(imino)-λ^6-sulfanone]	< 50	0.25	–
CN=S(C)(=O)c1cnc(N2CCN(C(C)c3ccc4scnc4c3)CC2)nc1 (racemic) [Example 25, (2-(4-(1-(benzo[d]thiazol-5-yl)ethyl)piperazin-1-yl)pyrimidin-5-yl)(methyl)(methylimino)-λ^6-sulfanone]	< 50	0.211	–
